For six compounds, inhibition and Kd results are on record in ChEMBL document CHEMBL3868604, “Optimization and bioevaluation of Cdc37-derived peptides: An insight into Hsp90-Cdc37 protein-protein interaction modulators” (Bioorg Med Chem, 2017).

Active and inactive are the calls of the source. The calls are words filed in the database; no cut-off is given here.

Assay [1] addresses T1, Heat shock protein HSP90 (Homo sapiens, UniProt P07900+P08238). In words: Inhibition of FITC-geldanamycin binding to N-terminal GST-tagged Hsp90 (unknown origin) expressed in Escherichia coli at 100 uM measured after 15 mins by fluorescence polarization assay relative to control. For orientation: Polarisation of emitted light reports the rotation of a fluorescent probe.
For a further assay, the species on record is Homo sapiens. In words: Inhibition of N-terminal GST-tagged Hsp90 (unknown origin)-His-tagged Cdc37 middle domain (unknown origin) interaction expressed in Escherichia coli at 50 uM preincubated for 30 mins with GST-tagged Hsp90 (unknown origin) followed by addition of His-tagged Cdc37 middle domain (unknown origin) measured after 1 hr by GST-pulldown assay.

The target in assay [2] is T1, Heat shock protein HSP90. In words: Binding affinity to N-terminal GST-tagged Hsp90 (unknown origin) expressed in Escherichia coli by ITC method.

For orientation: inhibition means how much of the control response was suppressed. In turn, `CC(C)c1cc(C(=O)N2Cc3ccc(CN4CCN(C)CC4)cc3C2)c(O)cc1O` showed an inhibition at Heat shock protein HSP90 [1] of 99.8%.
What is called Kd is a measure of binding affinity in units of concentration. Read a low Kd as a tighter complex. In the case of Ac-HFGMLRR-NH2, the inhibition result in the assay filed under Homo sapiens was “Active”. On Heat shock protein HSP90 [1], the inhibition was under 10%. Further, the Kd at Heat shock protein HSP90 [2] amounted to 5.99 µM.
Ac-KHFGMLRR-NH2 registered an inhibition at Heat shock protein HSP90 [1] of under 10%. This compound also had a Kd at Heat shock protein HSP90 [2] of 7.41 µM.
On Heat shock protein HSP90 [1], Ac-KHFGMLRRW-NH2 had an inhibition of under 10%. Further, at Heat shock protein HSP90 [2], the Kd is 10.07 µM.
Ac-KHFGMLRRWD-NH2 gave an inhibition at Heat shock protein HSP90 [1] of under 10%. On Heat shock protein HSP90 [2], this compound came in with a Kd of 21 µM.
At Heat shock protein HSP90 [1], Ac-KHFGMLRRWDD-NH2 displayed an inhibition of under 10%. This compound returned a Kd at Heat shock protein HSP90 [2] of 6.9 µM.
